Measurements published in ChEMBL document CHEMBL1201862, “PubChem BioAssay data set” (2004).
Calls of active or inactive are those of the source.

Assays:
[1] = mRNA 3' processing disruption, beta-gal signal increase – luminescence, S. cerevisiae SKY197-pL101, dose response (AID 2525); format: functional, cell-based
[2] = test system: Streptococcus sp. 'group A'; test: Streptococcus pyogenes SK(-)GAS viability under kanamycin – luminescence, BacTiterGlo, confirmation, counter-screen for streptokinase expression inhibitor project, dose response (AID 1900); format: functional, organism-based
[3] = biological target: T1, Streptokinase A (Streptococcus pyogenes serotype M1, UniProt P10520); test: viability-normalized secreted streptokinase activity reduction – plasminogen activation absorbance, OD405, dose response (AID 1914); format: functional, Streptococcus pyogenes M1 GAS;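 note: secreted streptokinase activity via plasminogen activation per viability signal from cell pellet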
T1 sequence (P10520 whole entry): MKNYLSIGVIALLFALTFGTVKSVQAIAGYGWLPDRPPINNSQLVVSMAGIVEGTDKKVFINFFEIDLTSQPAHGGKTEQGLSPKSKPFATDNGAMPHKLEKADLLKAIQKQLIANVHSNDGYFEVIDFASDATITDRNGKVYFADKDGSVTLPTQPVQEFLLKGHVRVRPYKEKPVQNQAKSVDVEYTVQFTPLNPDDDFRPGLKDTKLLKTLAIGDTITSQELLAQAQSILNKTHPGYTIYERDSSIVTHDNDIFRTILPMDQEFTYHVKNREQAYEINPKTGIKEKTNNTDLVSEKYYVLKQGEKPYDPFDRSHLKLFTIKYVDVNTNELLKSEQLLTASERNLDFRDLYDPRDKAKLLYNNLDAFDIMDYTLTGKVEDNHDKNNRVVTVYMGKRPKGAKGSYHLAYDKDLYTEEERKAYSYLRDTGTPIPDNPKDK

[4] = Luminescence Cell-Based Dose Confirmation HTS to Identify Inhibitors of Polyadenylation.; format: functional
[5] = test system: Streptococcus; test: GAS UMAA2166 growth inhibition – luminescence, BacTiterGlo, counter-screen for streptokinase expression inhibitor project, dose response (AID 1915); format: functional, organism-based;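 note: potency for reduction of bacterial viability or growth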
[6] = biological target: Multidrug resistance protein CDR1 (Candida albicans, UniProt P43071); test: inhibition of Nile Red efflux via Candida CDR1 – S. cerevisiae AD1-8u, singleplex, Cherry Pick1 hits, dose response (AID 588606); format: functional
Sequence of Multidrug resistance protein CDR1 (P43071 whole entry, looked up): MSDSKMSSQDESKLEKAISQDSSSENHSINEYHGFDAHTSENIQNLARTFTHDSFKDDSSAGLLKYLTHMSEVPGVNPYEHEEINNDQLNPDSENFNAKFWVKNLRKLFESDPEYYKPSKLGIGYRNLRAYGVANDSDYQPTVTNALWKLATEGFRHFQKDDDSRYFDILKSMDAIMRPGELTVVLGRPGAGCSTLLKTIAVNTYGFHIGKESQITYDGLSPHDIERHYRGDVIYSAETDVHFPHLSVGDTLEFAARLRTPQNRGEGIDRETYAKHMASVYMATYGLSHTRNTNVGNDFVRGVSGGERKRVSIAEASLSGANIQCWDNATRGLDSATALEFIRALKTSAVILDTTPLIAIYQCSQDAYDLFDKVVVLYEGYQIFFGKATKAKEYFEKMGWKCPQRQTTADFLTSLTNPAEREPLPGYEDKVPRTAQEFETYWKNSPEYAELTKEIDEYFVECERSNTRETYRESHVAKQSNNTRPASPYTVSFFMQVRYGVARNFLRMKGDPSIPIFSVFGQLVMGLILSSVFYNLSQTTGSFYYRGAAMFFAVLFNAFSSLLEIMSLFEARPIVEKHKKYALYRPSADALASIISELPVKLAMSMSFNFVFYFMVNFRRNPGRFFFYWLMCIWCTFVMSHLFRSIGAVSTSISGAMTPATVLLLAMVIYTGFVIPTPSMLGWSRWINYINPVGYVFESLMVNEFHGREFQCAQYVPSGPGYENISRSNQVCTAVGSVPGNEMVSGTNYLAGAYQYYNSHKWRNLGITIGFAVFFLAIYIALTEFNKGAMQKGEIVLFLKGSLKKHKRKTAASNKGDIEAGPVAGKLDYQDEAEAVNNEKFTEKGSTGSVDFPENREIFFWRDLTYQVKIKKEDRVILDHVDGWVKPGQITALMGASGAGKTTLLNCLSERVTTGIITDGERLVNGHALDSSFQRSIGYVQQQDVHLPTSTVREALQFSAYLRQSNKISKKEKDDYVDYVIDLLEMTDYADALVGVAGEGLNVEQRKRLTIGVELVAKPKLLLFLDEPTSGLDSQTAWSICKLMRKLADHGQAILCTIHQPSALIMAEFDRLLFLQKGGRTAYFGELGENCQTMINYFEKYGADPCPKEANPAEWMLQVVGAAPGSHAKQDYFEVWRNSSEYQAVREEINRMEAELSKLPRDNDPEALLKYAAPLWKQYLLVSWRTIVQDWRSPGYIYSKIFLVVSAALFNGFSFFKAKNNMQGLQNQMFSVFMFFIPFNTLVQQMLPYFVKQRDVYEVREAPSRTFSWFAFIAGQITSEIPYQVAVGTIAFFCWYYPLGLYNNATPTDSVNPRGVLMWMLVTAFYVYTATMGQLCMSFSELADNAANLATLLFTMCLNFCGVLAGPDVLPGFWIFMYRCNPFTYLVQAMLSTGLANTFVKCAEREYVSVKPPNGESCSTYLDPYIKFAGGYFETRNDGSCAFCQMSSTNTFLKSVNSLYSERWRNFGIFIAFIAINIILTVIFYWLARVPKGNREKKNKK

[7] = biological target: Photoreceptor-specific nuclear receptor (Homo sapiens, UniProt Q9Y5X4); format: functional;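 note: potency for compounds that break the NR2E3 corepressor complex and count as activators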
Sequence of Photoreceptor-specific nuclear receptor (Q9Y5X4 whole entry, the tested form may be a part): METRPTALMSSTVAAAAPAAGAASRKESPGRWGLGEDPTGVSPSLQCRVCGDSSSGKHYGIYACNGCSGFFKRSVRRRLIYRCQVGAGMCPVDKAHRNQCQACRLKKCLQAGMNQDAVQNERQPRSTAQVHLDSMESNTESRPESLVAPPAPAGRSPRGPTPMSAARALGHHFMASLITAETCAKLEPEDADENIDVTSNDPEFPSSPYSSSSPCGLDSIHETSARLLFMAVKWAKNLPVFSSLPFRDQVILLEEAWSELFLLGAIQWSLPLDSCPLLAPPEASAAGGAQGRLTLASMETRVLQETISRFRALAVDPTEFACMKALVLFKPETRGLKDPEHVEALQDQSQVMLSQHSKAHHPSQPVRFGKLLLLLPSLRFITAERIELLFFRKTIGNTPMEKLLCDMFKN

[8] = biological target: T2, RNA-binding protein pos-1 (Caenorhabditis elegans, UniProt G5EF15); test: disruptors of C. elegans POS-1 RNA interaction – biochemical, fluorescence polarization, dose response (AID 1964);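 note: purified POS-1 fused to maltose binding protein made in E. coli; potency of compounds blocking POS-1 binding to fluorescent RNA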
T2 sequence (G5EF15 whole entry): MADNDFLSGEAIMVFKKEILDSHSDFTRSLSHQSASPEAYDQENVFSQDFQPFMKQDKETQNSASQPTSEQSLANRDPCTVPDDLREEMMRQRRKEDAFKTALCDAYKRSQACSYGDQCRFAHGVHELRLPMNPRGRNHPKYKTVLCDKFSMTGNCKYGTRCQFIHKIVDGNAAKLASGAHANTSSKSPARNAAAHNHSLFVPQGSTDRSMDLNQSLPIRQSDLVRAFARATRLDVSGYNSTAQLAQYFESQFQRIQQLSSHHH

[9] = biological target: T3, Zinc finger protein mex-5 (Caenorhabditis elegans, UniProt Q9XUB2); test: potency of MEX-5 RNA-binding blockers – biochemical, C. elegans, fluorescence polarization, dose response (AID 1960)
T3 sequence (Q9XUB2 whole entry): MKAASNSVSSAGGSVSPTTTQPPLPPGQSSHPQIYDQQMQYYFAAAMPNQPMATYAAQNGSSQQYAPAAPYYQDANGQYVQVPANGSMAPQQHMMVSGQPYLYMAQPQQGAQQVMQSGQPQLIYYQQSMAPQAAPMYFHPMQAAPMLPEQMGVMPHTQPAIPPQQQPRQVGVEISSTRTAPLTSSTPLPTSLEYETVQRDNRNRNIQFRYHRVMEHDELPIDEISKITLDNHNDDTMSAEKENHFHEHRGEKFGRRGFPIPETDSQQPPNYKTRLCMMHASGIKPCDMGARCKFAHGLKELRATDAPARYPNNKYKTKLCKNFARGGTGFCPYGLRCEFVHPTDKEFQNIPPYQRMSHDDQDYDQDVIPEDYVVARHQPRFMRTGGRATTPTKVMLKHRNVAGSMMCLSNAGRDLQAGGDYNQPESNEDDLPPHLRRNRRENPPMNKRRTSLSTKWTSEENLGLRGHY

[10] = biological target: Peroxisome proliferator-activated receptor gamma/Nuclear receptor corepressor 2 (Homo sapiens, UniProt P37231+Q9Y618); format: functional
[11] = biological target: T4, Polyadenylate-binding protein 1 (Homo sapiens, UniProt P11940); test: MLLE binding blockers, Cy5 peptide tracer – biochemical, fluorescence polarization, Cy5-PAM2 peptide, secondary, miRNA deadenylation inhibitor project, dose response (AID 602260); format: functional; conditions: read-out: IC50_Mean
T4 sequence (P11940 whole entry, the tested form may be a part): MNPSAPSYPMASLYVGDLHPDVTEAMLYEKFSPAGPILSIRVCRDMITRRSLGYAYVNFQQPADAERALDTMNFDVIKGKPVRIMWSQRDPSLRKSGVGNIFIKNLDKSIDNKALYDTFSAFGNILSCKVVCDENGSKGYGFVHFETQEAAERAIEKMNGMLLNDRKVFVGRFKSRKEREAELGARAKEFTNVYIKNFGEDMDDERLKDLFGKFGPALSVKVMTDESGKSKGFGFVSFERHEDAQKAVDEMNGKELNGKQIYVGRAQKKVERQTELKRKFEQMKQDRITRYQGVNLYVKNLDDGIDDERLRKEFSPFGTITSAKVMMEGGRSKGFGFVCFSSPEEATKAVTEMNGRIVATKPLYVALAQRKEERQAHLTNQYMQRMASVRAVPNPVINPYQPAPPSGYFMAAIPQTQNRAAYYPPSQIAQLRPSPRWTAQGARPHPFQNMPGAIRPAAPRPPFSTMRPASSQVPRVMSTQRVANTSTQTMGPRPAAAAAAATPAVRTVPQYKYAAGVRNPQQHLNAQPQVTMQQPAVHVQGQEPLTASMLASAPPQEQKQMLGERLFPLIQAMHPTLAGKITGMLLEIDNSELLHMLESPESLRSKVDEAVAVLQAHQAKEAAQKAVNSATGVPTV

[12] = biological target: T4, Polyadenylate-binding protein 1; test: MLLE domain peptide-binding blockers, IC50 – biochemical, fluorescence polarization, FITC-PAM2 peptide, dose response (AID 602259); format: functional; conditions: read-out: IC50_Mean
[13] = NIH-3T3 fibroblast cytotoxicity, dose response, cytotoxicity control, cell-based, fluorescence, Alamar Blue, secondary assay (AID 2327); format: functional;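 note: NIH-3T3 mouse fibroblasts cultured with fluconazole at 8 µg/mL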
[14] = luciferase reporter signal reduction – luminescence, H4-C neuroglioblastoma cells, dose response (AID 2458); format: functional, cell-based;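 note: H4 neuroglioblastoma cells stably carrying a luciferase reporter gene fusion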
[15] = cells; format: functional, cell-based
[16] = alpha-synuclein stem-loop luciferase translation blockers – H4 neuroglioma cells, luminescence, confirmation (AID 1988); format: functional, cell-based
[17] = fluconazole-exposed Candida albicans growth modulators – fluorescence, retest, confirmation (AID 2467); format: functional, cell-based
[18] = biological target: Serine/threonine-protein phosphatase (Candida dubliniensis (strain CD36 / CBS 7987 / NCPF 3949 / NRRLY-17841) (Yeast), UniProt B9W6M3); test: blockers of CaCl2-induced CDRE-lacZ signaling – S. cerevisiae, luminescence, secondary, dose response (AID 2388); format: functional, cell-based;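 note: yeast reporter cells carrying a calcineurin-responsive lacZ construct stimulated with calcium chloride; luminescent beta-galactosidase reporter signal in whole cells rather than isolated phosphatase activity; potency for inhibition where a drop in reporter signal means calcineurin blockade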
[19] = alpha-synuclein stem-loop translation blockers – luminescence, H4 neuroglioblastoma cells, dose confirmation, confirmation (AID 2454); format: functional, cell-based;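 note: H4 neuroglioblastoma cells carrying an alpha-synuclein 5'UTR luciferase reporter; potency for inhibition of the luciferase signal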
[20] = biological target: Heat shock protein HSP 90-alpha (Homo sapiens, UniProt P07900); format: functional, organism-based
[21] = biological target: ATP-dependent molecular chaperone HSP82 (Candida albicans (strain WO-1) (Yeast), UniProt C4YTQ8); test: steroid-induced GRE reporter decrease in yeast – S. cerevisiae, luminescence, Hsp90 inhibitor project, dose response (AID 2400); format: functional, cell-based;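 note: beta-galactosidase luminescence from glucocorticoid response element reporter as proxy for Hsp90 function; inhibitor potency where signal loss means Hsp90 inhibition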
[22] = biological target: Cytochrome P450 2D6 (Homo sapiens, UniProt P10635); test: qHTS Assay for Inhibitors and Substrates of Cytochrome P450 2D6. [Related pubchem assays: 410 ]; format: ADME; conditions: read-out: Potency
Sequence of Cytochrome P450 2D6 (P10635 whole entry): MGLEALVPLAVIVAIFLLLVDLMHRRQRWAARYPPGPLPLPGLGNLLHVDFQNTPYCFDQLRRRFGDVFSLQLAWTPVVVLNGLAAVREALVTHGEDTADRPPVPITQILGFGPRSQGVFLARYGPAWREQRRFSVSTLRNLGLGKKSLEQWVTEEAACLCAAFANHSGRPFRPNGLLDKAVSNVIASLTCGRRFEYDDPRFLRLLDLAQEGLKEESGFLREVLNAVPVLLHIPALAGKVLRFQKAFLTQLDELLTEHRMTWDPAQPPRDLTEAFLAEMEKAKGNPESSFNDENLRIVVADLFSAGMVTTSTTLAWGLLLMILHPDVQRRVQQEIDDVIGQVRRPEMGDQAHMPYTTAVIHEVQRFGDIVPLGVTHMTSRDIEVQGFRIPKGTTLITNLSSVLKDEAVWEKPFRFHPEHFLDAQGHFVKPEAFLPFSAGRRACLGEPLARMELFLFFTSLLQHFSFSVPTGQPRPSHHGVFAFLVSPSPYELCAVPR

[23] = biological target: Guanyl-specific ribonuclease T1 (Aspergillus oryzae (strain ATCC 42149 / RIB 40), UniProt P00651); test: inhibition of ribonuclease T1 activity – biochemical, fluorescence polarization, 1536-well, counter-screen for TPT1 inhibitor project, dose response (AID 2167)
Sequence of Guanyl-specific ribonuclease T1 (P00651 whole entry): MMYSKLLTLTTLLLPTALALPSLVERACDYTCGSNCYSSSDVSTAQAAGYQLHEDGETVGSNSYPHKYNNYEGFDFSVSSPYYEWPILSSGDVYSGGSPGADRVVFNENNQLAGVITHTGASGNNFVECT

[24] = biological target: Likely tRNA 2'-phosphotransferase (Candida albicans (strain SC5314 / ATCC MYA-2876) (Yeast), UniProt Q5A7N4); test: inhibition of Candida TPT1 enzyme activity – biochemical, fluorescence polarization, dose response (AID 2160)
Sequence of Likely tRNA 2'-phosphotransferase (Q5A7N4 whole entry): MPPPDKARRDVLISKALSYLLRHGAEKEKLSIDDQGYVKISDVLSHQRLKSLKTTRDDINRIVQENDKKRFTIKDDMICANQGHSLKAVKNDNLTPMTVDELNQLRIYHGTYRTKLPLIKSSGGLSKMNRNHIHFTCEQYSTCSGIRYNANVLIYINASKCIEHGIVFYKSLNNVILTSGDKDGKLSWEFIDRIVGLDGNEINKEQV

[25] = viability loss in THP-1 monocytes – THP-1 cells, cytotoxicity control for Vif-APOBEC3G degradation inhibitor project, dose response (AID 1117359); format: functional; conditions: THP-1
[26] = biological target: Glutathione-S-transferase (Schistosoma japonicum, UniProt Q26513); test: GST-antibody interaction or FRET quenching – biochemical, TR-FRET, artefact control for Vif-APOBEC3G degradation inhibitor project, dose response (AID 1117362); format: functional
Sequence of Glutathione-S-transferase (Q26513 whole entry): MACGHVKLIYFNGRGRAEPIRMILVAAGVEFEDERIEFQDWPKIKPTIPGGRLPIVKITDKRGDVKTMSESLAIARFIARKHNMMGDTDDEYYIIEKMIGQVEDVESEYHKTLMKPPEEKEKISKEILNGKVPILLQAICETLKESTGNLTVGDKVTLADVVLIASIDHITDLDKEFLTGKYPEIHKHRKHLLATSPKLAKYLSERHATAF

[27] = biological target: T5, Alkaline phosphatase, tissue-nonspecific isozyme (Homo sapiens, UniProt P05186)
T5 sequence (P05186 whole entry): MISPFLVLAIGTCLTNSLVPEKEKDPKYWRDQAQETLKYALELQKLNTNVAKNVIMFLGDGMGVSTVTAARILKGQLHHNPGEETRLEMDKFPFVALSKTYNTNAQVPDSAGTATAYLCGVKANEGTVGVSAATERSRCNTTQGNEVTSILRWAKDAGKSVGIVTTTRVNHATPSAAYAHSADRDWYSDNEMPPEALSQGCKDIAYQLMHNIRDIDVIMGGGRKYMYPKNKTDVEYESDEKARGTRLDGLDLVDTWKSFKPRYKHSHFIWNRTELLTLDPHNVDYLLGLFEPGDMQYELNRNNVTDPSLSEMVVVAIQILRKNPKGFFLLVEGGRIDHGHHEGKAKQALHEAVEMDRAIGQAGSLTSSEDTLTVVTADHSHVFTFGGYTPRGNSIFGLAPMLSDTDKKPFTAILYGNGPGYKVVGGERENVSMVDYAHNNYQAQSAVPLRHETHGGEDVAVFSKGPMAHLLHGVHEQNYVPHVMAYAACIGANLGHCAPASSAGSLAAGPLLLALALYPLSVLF

[28] = biological target: Lysosomal acid glucosylceramidase (Homo sapiens, UniProt P04062); test: Dose response cell-based high throughput screening assay to identify enhancers of beta-glucosidase activity. [Related pubchem assays: 784 ]; format: functional
Sequence of Lysosomal acid glucosylceramidase (P04062 whole entry): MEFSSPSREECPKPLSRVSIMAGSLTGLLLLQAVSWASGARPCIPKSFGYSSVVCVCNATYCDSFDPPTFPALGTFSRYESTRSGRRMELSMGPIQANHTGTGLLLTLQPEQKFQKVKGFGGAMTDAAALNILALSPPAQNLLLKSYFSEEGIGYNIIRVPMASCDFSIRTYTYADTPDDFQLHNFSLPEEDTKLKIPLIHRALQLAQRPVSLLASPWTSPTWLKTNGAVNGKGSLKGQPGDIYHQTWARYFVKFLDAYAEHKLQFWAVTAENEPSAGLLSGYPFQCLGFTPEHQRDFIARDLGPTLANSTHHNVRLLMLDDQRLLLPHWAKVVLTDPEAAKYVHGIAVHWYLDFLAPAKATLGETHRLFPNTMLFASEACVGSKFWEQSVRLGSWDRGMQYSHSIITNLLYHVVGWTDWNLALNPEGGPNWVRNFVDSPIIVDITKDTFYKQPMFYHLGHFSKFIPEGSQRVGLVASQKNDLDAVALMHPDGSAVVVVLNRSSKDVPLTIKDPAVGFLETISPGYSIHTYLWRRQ

[29] = luciferase reporter signal suppression in cells – H4 neuroglioma cells, luminescence, dose response (AID 1990); format: functional, cell-based
[30] = Luminescence Cell-Based Dose Response HTS to Identify Inhibitors of 5'UTR Stem-Loop Driven Prion Protein mRNA Translation in H4 Neuroglioblastoma Cells. [Related pubchem assays: 1827 (Project Summary), 1813 (Primary HTS)]; format: functional
[31] = biological target: Transitional endoplasmic reticulum ATPase (Homo sapiens, UniProt P55072, C522A); test: C522A mutant p97 ATPase inhibitors, dose response, counter-screen for p97 inhibitor project, biochemical, luminescence (AID 1544)
[32] = viability of PTEN-deleted HCT116 cells – cell-based, HCT116 PTEN knockout, dose response (AID 1047); format: functional;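 note: HCT116 colon tumor cells with PTEN knocked out; cells exposed to compound for 60 hours before readout; potency for loss of cell viability measured by luminescence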
[33] = biological target: T6, Calpain-2 catalytic subunit (Sus scrofa, UniProt P43367); test: m-calpain protease blockers, concentration series – biochemical, fluorogenic peptide substrate, dose response (AID 1420); format: functional
T6 sequence (P43367 whole entry): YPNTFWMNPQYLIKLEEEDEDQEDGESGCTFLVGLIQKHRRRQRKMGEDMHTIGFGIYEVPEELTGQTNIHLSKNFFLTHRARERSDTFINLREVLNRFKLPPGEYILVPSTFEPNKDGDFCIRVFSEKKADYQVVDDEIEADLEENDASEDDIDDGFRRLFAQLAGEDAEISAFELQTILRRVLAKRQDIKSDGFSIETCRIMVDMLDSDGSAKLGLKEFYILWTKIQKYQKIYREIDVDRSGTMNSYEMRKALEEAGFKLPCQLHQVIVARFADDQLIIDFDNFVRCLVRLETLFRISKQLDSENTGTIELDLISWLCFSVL

[34] = viability of HCT116 lacking mutant beta-catenin – cell-based, human colon tumor, dose response (AID 1045); format: functional;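 note: HCT116 colon tumor cells with beta catenin knocked out; cells exposed to compound for 60 hours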
[35] = biological target: Transitional endoplasmic reticulum ATPase (Homo sapiens, UniProt P55072); test: p97 ATPase inhibitors, dose response, biochemical (AID 1534)
Sequence of Transitional endoplasmic reticulum ATPase (Homo sapiens, UniProt P55072) (P55072 whole entry): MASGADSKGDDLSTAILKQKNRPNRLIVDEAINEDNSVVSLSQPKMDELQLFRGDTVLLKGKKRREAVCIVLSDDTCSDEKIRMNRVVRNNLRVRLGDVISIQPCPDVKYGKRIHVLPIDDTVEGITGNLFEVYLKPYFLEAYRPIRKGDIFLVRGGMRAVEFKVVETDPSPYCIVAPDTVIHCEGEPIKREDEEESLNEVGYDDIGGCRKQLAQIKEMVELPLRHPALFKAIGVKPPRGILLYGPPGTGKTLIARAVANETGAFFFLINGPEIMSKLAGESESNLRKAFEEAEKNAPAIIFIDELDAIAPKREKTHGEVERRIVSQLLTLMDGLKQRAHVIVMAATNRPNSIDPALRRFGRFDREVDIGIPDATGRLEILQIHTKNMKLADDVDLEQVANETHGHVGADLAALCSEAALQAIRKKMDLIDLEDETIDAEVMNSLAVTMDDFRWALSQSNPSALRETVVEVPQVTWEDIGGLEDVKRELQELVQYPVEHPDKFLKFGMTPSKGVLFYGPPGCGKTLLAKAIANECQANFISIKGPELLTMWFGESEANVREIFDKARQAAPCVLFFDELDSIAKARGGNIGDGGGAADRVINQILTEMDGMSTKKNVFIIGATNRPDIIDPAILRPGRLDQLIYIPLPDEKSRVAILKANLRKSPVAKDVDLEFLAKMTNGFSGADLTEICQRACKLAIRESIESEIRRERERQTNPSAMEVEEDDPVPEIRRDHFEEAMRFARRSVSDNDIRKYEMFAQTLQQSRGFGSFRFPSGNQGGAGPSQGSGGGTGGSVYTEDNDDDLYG

[36] = biological target: T7, Bcl-2-related protein A1 (Mus musculus, UniProt Q07440); format: functional;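 note: confirmatory dose–response counterscreen on Bfl-1, used to check hits from a UBC13 polyubiquitin inhibitor campaign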
T7 sequence (Q07440 whole entry): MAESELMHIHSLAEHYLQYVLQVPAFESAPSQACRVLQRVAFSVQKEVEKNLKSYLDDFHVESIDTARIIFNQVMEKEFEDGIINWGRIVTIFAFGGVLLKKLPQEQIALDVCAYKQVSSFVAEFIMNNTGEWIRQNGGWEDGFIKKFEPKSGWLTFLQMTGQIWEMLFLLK

[37] = biological target: T8, Ubiquitin-conjugating enzyme E2 N (Homo sapiens, UniProt P61088); format: functional
T8 sequence (P61088 whole entry): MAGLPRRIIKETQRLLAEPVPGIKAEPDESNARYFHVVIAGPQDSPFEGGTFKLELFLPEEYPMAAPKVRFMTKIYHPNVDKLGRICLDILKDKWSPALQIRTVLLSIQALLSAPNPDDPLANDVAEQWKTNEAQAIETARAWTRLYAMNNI

[38] = biological target: T8, Ubiquitin-conjugating enzyme E2 N; format: functional; remark: listed apart in the source

Compound: COc1cc(/C=C2/CC/C(=C/c3ccc(O)c(OC)c3)C2=O)ccc1O
- EC50 [1]: 173 µM (active)
- EC50 [2]: 15.8 µM (active)
- EC50 [3]: > 150 µM (not active)
- EC50 [4]: 6.57 µM (active)
- EC50 [5]: 76.7 µM (active)
- EC50 [6]: 27.1 µM (active)

Compound: COC(=O)c1cc2n3ccccc3c(C)c(-c3ccccc3)c-2c1C(=O)OC
- IC50 [7]: 0.186 µM (active)
- EC50 [8]: 23.6 µM (active)
- EC50 [9]: 16.6 µM (active)
- IC50 [10]: 0.196 µM (active)
- IC50 [11]: > 66 µM (inactive)
- IC50 [12]: 54.7 µM (inactive)

Compound: Oc1c(C(Nc2nccs2)c2ccc(C(F)(F)F)cc2)ccc2cccnc12 (stereo not given)
- EC50 [13]: 11.2 µM (active)
- EC50 [14]: 8.36 µM (active)
- EC50 [15]: 1.04 µM (active)
- EC50 [16]: < 0.1 µM (active)
- EC50 [17]: 1.01 µM (active)
- EC50 [18]: > 180 µM (inactive)
- EC50 [19]: > 12 µM (not active)
- AC50 [20]: 3.69 µM (active)
- EC50 [21]: > 160 µM (inactive)

Compound: COc1ccccc1CNc1cc(-c2ccccc2C(F)(F)F)ncn1
- AC50 [22]: 39.8 µM (inconclusive)

Compound: CCN1CCN(c2cc(N3CCN(C(=O)c4ccco4)CC3)c3c4c(onc24)-c2ccccc2C3=O)CC1
- IC50 [23]: 7.8 µM (active)
- IC50 [24]: 10.7 µM (not active)
- CC50 [25]: > 40 µM (active)
- IC50 [26]: > 100 µM (active)

Compound: Cc1ccc(C(O)(C(=O)NNC(=O)CN2CCN(C)CC2)c2ccc(C)cc2)cc1
- EC50 [27]: 64.1 µM (not active)

Compound: CC(=O)N1CCc2cc(Br)cc(S(=O)(=O)NCCN3CCCCC3C)c21 (stereo not given)
- EC50 [28]: > 50 µM (not active)

Compound: N=C(N)N/N=C/c1ccc(OCc2ccc(Cl)cc2Cl)cc1
- EC50 [13]: 21 µM (inconclusive)
- EC50 [29]: > 120 µM (not active)
- EC50 [30]: > 120 µM (not active)
- EC50 [16]: > 120 µM (not active)
- IC50 [31]: > 50 µM (not active)
- EC50 [32]: 4.19 µM (active)
- IC50 [33]: 7.31 µM (not active)
- EC50 [34]: 4.16 µM (active)
- IC50 [35]: > 50 µM (not active)
- IC50 [36]: 13 µM (active)
- IC50 [37]: 7.26 µM (active)
- IC50 [38]: 5.97 µM (active)
